Consider 24 molecules from ChEMBL document CHEMBL1139542, “Synthesis, biological evaluation, and three-dimensional quantitative structure-activity relationship study of small-molecule positive modulators of adrenomedullin” (J Med Chem, 2005).

Each structure is given as a SMILES string.

This test concerns Adrenomedullin (Homo sapiens). The experiment in a line: Affinity against human adrenomedullin.
The molecule `c1ccc(OCc2nnc(CCCCCc3nnc(COc4ccccc4)o3)o2)cc1` had an Affinity of 4%. Consider `O=C(CCCCCCCC(=O)NNC(=O)COc1ccccc1)NNC(=O)COc1ccccc1`, for which the Affinity turned out to be 7%. Consider `Nn1c(CCCCCCCCc2nnc(COc3c(O)ccc4ccccc34)n2N)nnc1COc1c(O)ccc2ccccc12`, for which the Affinity was found to be 46%. Molecule `O=C(CCCCCCC(=O)NNC(=O)COc1ccccc1)NNC(=O)COc1ccccc1` yielded an Affinity of 20%. `Nn1c(CCCCCCCCc2nnc(COc3ccc4ccccc4c3O)n2N)nnc1COc1ccc2ccccc2c1O` gave an Affinity of 42%. Turning to `O=C(CCCCCCCCC(=O)NNC(=O)COc1ccccc1)NNC(=O)COc1ccccc1`, the Affinity worked out at 25%. `c1ccc(OCc2nnc(CCCCCCCc3nnc(COc4ccccc4)o3)o2)cc1` showed an Affinity of 6%. For `c1ccc(Cn2c(CCCCCCCc3nnc(COc4ccccc4)n3Cc3ccccc3)nnc2COc2ccccc2)cc1` the value was 20%.

Regarding `O=C(CCCCCC(=O)NNC(=O)COc1ccccc1)NNC(=O)COc1ccccc1`, the Affinity turned out to be 16%. `c1ccc(Cn2c(CCCCc3nnc(COc4ccccc4)n3Cc3ccccc3)nnc2COc2ccccc2)cc1` gave an Affinity of 19%. Turning to `c1ccc(Cn2c(CCCCCCc3nnc(COc4ccccc4)n3Cc3ccccc3)nnc2COc2ccccc2)cc1`, the Affinity worked out at 3%.

In the case of `Nn1c(CCCCCCCCc2nnc(COc3ccc(Cl)cc3Cl)n2N)nnc1COc1ccc(Cl)cc1Cl`, the Affinity was 48%. The molecule `Clc1ccc(OCc2nnc(CCCCCCCCc3nnc(COc4ccc(Cl)cc4)n3Nc3ccccc3)n2Nc2ccccc2)cc1` registered an Affinity of 51%. In turn, `Oc1c(OCc2nnc(CCCCCCCCc3nnc(COc4ccc5ccccc5c4O)n3Nc3ccccc3)n2Nc2ccccc2)ccc2ccccc12` returned an Affinity of 83%.

Consider `c1ccc(OCc2nnc(CCCCCCCCc3nnc(COc4ccccc4)o3)o2)cc1`, for which the Affinity was 5%. On to `c1ccc(Nn2c(CCCCCCCCc3nnc(COc4ccccc4)n3Nc3ccccc3)nnc2COc2ccccc2)cc1`, for which the Affinity stood at 81%. `O=C(CCCCC(=O)NNC(=O)COc1ccccc1)NNC(=O)COc1ccccc1` came in with an Affinity of 1%. Molecule `c1ccc(OCc2nnc(CCCCc3nnc(COc4ccccc4)o3)o2)cc1` came in with an Affinity of 18%. The molecule `Oc1ccc2ccccc2c1OCc1nnc(CCCCCCCCc2nnc(COc3c(O)ccc4ccccc34)n2Nc2ccccc2)n1Nc1ccccc1` returned an Affinity of 24%. In turn, `c1ccc(Cn2c(CCCCCCCCc3nnc(COc4ccccc4)n3Cc3ccccc3)nnc2COc2ccccc2)cc1` gave an Affinity of 4%. `c1ccc(OCc2nnc(CCCCCCc3nnc(COc4ccccc4)o3)o2)cc1` showed an Affinity of 10%. `Clc1ccc(OCc2nnc(CCCCCCCCc3nnc(COc4ccc(Cl)cc4Cl)n3Nc3ccccc3)n2Nc2ccccc2)c(Cl)c1` had an Affinity of 68%. Turning to `c1ccc(Cn2c(CCCCCc3nnc(COc4ccccc4)n3Cc3ccccc3)nnc2COc2ccccc2)cc1`, the Affinity came to 14%. Next, `Nn1c(CCCCCCCCc2nnc(COc3ccc(Cl)cc3)n2N)nnc1COc1ccc(Cl)cc1`: 19%.
